Data published in PMC8815882, “Screening the pandemic response box identified benzimidazole carbamates, Olorofim and ravuconazole as promising drug candidates for the treatment of eumycetoma” (PLoS Neglected Tropical Diseases, 2022).
pIC50: −log10 of the molar value. Values after ≈ are worked out from the molar mass of the structure shown. Read-outs that look alike come from different tables or passages of the source.

Experiments:
[1] = test system: M. mycetomatis genome strain MM55; assay: CLSI M38-A2 based in vitro susceptibility screening (XTT or resazurin), growth at fixed concentration; assay type: cell-based, Madurella mycetomatis; conditions: Madurella mycetomatis; for Percent fungal survival at 100 µM: replicate 2, M. mycetomatis MM55, read-out: Percentage survival at 100um, 100 uM A (second replicate column)
M. mycetomatis MM55 = assay: IC50 determination, 2-fold dilution series 16 to 0.03125 μM; assay type: cell-based, Madurella mycetomatis; conditions: for pIC50 / IC90: Madurella mycetomatis
[2] = test system: ten different M. mycetomatis isolates; assay: MIC / MIC50 determination (XTT) in ten M. mycetomatis isolates; assay type: cell-based, Madurella mycetomatis; conditions: Madurella mycetomatis
[3] = test system: M. mycetomatis isolate MM55; assay: M. mycetomatis grain infection model in G. mellonella larvae, survival; assay type: in vivo, Galleria mellonella; parameters: In vivo efficacy, Larvae survival %: concentration or dose not given beside the values
[4] = mean of three, M. mycetomatis MM55, read-out: Percentage survival at 25um, 25 uM mean
[5] = replicate A, M. mycetomatis MM55, read-out: Percentage survival at 25um, 25 um A
[6] = replicate B, M. mycetomatis MM55, read-out: Percentage survival at 25um, 25 uM B
[7] = replicate C, M. mycetomatis MM55, read-out: Percentage survival at 25um, 25 uM C
[8] = mean of three, M. mycetomatis MM55, read-out: Percentage survival at 100um, 100 uM mean
[9] = replicate 1, M. mycetomatis MM55, read-out: Percentage survival at 100um, 100 uM A (first replicate column)
[10] = replicate 3, M. mycetomatis MM55, read-out: Percentage survival at 100um, 100 uM A (third replicate column)
[11] = MM55, Table 2, M. mycetomatis MM55, read-out: IC50
[12] = MM55, mean of replicates, read-out: IC50 mean
[13] = MM55, mean of replicates, read-out: IC90 mean
[14] = MM55, replicate 1, read-out: IC50 1 um
[15] = MM55, replicate 1, read-out: IC90 1 um
[16] = MM55, replicate 2, read-out: IC50 2 um
[17] = MM55, replicate 2, read-out: IC90 2 um
[18] = MM55, replicate 3, read-out: IC50 3 um
[19] = MM55, replicate 3, read-out: IC90 3 um
[20] = median MIC over ten M. mycetomatis isolates, no asterisk, read-out: MIC50
[21] = over the tested M. mycetomatis isolates, read-out: MIC50 mean
[22] = isolate CBS247.48, read-out: MIC CBS247.48
[23] = isolate MM14, read-out: MIC MM14
[24] = isolate MM45, read-out: MIC MM45
[25] = isolate MM55, read-out: MIC MM55
[26] = isolate ParijsAl1, read-out: MIC ParijsAl1
[27] = isolate Peru72012, read-out: MIC Peru72012
[28] = G. mellonella larvae infected with M. mycetomatis

## O=C(/C(=C/c1ccc(Cl)cc1Cl)n1ccnc1)c1ccc(Cl)cc1 [MMV1634491]
[1]; [4]
  activity at 25 µM: 0.641%
[1]; [5]
  activity at 25 µM: -1.32%
[1]; [6]
  activity at 25 µM: 0.287%
[1]; [7]
  activity at 25 µM: 2.96%
[1]; [8]
  activity at 100 µM: 7.66%
[1]; [9]
  activity at 100 µM: -1.73%
[1]
  Percent fungal survival at 100 µM: 4.59%
[1]; [10]
  activity at 100 µM: 20.1%
M. mycetomatis MM55; M. mycetomatis
  Drug static or cidal: Static
M. mycetomatis MM55; [11]
  pIC50: 5.55
M. mycetomatis MM55; [12]
  pIC50: 5.55
M. mycetomatis MM55; [13]
  IC90: 4700 nM
M. mycetomatis MM55; [14]
  pIC50: 5.65
M. mycetomatis MM55; [15]
  IC90: 4360 nM
M. mycetomatis MM55; [16]
  pIC50: 5.54
M. mycetomatis MM55; [17]
  IC90: 4780 nM
M. mycetomatis MM55; [18]
  pIC50: 5.48
M. mycetomatis MM55; [19]
  IC90: 4950 nM
[2]; [20]
  MIC50: 1 µM (≈ 0.378 µg/mL)
[2]; [21]
  MIC50: 4 µM (≈ 1.51 µg/mL)
[2]; [22]
  MIC: 4 µM (≈ 1.51 µg/mL)
[2]; [23]
  MIC: 4 µM (≈ 1.51 µg/mL)
[2]; [24]
  MIC: 2 µM (≈ 0.755 µg/mL)
[2]; [25]
  MIC: 4 µM (≈ 1.51 µg/mL)
[2]; isolate P1, read-out: MIC P1
  MIC: 4 µM (≈ 1.51 µg/mL)
[2]; [26]
  MIC: 4 µM (≈ 1.51 µg/mL)
[2]; [27]
  MIC: 4 µM (≈ 1.51 µg/mL)
[2]; isolate So1, read-out: MIC So1
  MIC: 4 µM (≈ 1.51 µg/mL)
[2]; isolate i1, read-out: MIC i1
  MIC: 1 µM (≈ 0.378 µg/mL)
[2]; isolate i11, read-out: MIC i11
  MIC: 4 µM (≈ 1.51 µg/mL)
[3]; [28]
  In vivo efficacy, Enhanced survival compared to control?: no
  In vivo efficacy, Larvae survival %: 8.9%

## CCCCC(CC)CNC(=N)NC(=N)NCCCCCCNC(=N)NC(=N)NCC(CC)CCCC (stereo not drawn) [MMV396785, Alexidine, reference compound]
[1]; [4]
  activity at 25 µM: 1.02%
[1]; [5]
  activity at 25 µM: -0.617%
[1]; [6]
  activity at 25 µM: 1.64%
[1]; [7]
  activity at 25 µM: 2.05%
[1]; [8]
  activity at 100 µM: 7.33%
[1]; [9]
  activity at 100 µM: -1.99%
[1]
  Percent fungal survival at 100 µM: 7.87%
[1]; [10]
  activity at 100 µM: 16.1%
M. mycetomatis MM55; M. mycetomatis
  Drug static or cidal: Static
M. mycetomatis MM55; [11]
  pIC50: 5.59
M. mycetomatis MM55; [12]
  pIC50: 5.59
M. mycetomatis MM55; [13]
  IC90: 4260 nM
M. mycetomatis MM55; [14]
  pIC50: 5.67
M. mycetomatis MM55; [15]
  IC90: 3950 nM
M. mycetomatis MM55; [16]
  pIC50: 5.57
M. mycetomatis MM55; [17]
  IC90: 4400 nM
M. mycetomatis MM55; [18]
  pIC50: 5.55
M. mycetomatis MM55; [19]
  IC90: 4420 nM
[2]; [20]
  MIC50: 2 µM (≈ 1.02 µg/mL)
[2]; [21]
  MIC50: 2 µM (≈ 1.02 µg/mL)
[2]; [22]
  MIC: 1 µM (≈ 0.509 µg/mL)
[2]; [23]
  MIC: 2 µM (≈ 1.02 µg/mL)
[2]; [24]
  MIC: 2 µM (≈ 1.02 µg/mL)
[2]; [25]
  MIC: 2 µM (≈ 1.02 µg/mL)
[2]; isolate P1, read-out: MIC P1
  MIC: 2 µM (≈ 1.02 µg/mL)
[2]; [26]
  MIC: 4 µM (≈ 2.04 µg/mL)
[2]; [27]
  MIC: 4 µM (≈ 2.04 µg/mL)
[2]; isolate So1, read-out: MIC So1
  MIC: 2 µM (≈ 1.02 µg/mL)
[2]; isolate i1, read-out: MIC i1
  MIC: 2 µM (≈ 1.02 µg/mL)
[2]; isolate i11, read-out: MIC i11
  MIC: 2 µM (≈ 1.02 µg/mL)
[3]; [28]
  In vivo efficacy, Enhanced survival compared to control?: no
  In vivo efficacy, Larvae survival %: 2.2%

## Clc1cc(Cl)c2c(c1)CCc1ccccc1C2n1ccnc1 (stereo not drawn) [MMV1634492, Eberconazole, reference compound]
[1]; mean, read-out: Percentage survival at 25um, 25 uM mean
  activity at 25 µM: -1.12%
[1]; replicate A, read-out: Percentage survival at 25um, 25 um A
  activity at 25 µM: -3.02%
[1]; replicate B, read-out: Percentage survival at 25um, 25 uM B
  activity at 25 µM: -4.98%
[1]; replicate C, read-out: Percentage survival at 25um, 25 uM C
  activity at 25 µM: 4.64%
[1]; mean, read-out: Percentage survival at 100um, 100 uM mean
  activity at 100 µM: 3.3%
[1]; replicate (first column), read-out: Percentage survival at 100um, 100 uM A
  activity at 100 µM: -3.84%
[1]; replicate (second column), read-out: Percentage survival at 100um, 100 uM A
  activity at 100 µM: 6.56%
[1]; replicate (third column), read-out: Percentage survival at 100um, 100 uM A
  activity at 100 µM: 7.19%
M. mycetomatis MM55
  Drug static or cidal: Cidal
M. mycetomatis MM55; [11]
  pIC50: 6.14
M. mycetomatis MM55; MM55, read-out: IC90 mean
  IC90: 1290 nM
M. mycetomatis MM55; MM55, replicate 1, read-out: IC50 1
  pIC50: 6.24
M. mycetomatis MM55; MM55, replicate 1, read-out: IC90 1
  IC90: 1300 nM
M. mycetomatis MM55; MM55, replicate 2, read-out: IC50 2
  pIC50: 6.11
M. mycetomatis MM55; MM55, replicate 2, read-out: IC90 2
  IC90: 1210 nM
M. mycetomatis MM55; MM55, replicate 3, read-out: IC50 3
  pIC50: 6.10
M. mycetomatis MM55; MM55, replicate 3, read-out: IC90 3
  IC90: 1350 nM
[2]; [20]
  MIC50: 0.5 µM (≈ 0.165 µg/mL)
[2]; over the isolates tested, read-out: MIC50 mean
  MIC50: 0.5 µM (≈ 0.165 µg/mL)
[2]; [22]
  MIC: 2 µM (≈ 0.658 µg/mL)
[2]; [23]
  MIC: 0.125 µM (≈ 0.0412 µg/mL)
[2]; [24]
  MIC: 4 µM (≈ 1.32 µg/mL)
[2]; [25]
  MIC: 0.5 µM (≈ 0.165 µg/mL)
[2]; isolate P1, read-out: MIC P1
  MIC: 1 µM (≈ 0.329 µg/mL)
[2]; [26]
  MIC: 0.125 µM (≈ 0.0412 µg/mL)
[2]; [27]
  MIC: 0.5 µM (≈ 0.165 µg/mL)
[2]; isolate So1, read-out: MIC So1
  MIC: 0.125 µM (≈ 0.0412 µg/mL)
[2]; isolate i1, read-out: MIC i1
  MIC: 0.0625 µM (≈ 0.0206 µg/mL)
[2]; isolate i11, read-out: MIC i11
  MIC: 1 µM (≈ 0.329 µg/mL)
[3]; 20 μM per larvae, vs infected control, day four
  Effect on larvae survival Day 4 (words): prolonged larvae survival
[3]; in vivo
  In vivo efficacy, Enhanced survival compared to control?: no
  In vivo efficacy, Larvae survival %: 13.3%

## Clc1ccc(COC(Cn2ccnc2)c2ccc(Cl)cc2Cl)c(Cl)c1 (stereo not drawn) [MMV002722]
[1]; [4]
  activity at 25 µM: 1.83%
[1]; [5]
  activity at 25 µM: 0.653%
[1]; [6]
  activity at 25 µM: 1.37%
[1]; [7]
  activity at 25 µM: 3.48%
[1]; [8]
  activity at 100 µM: 8.62%
[1]; [9]
  activity at 100 µM: 1.56%
[1]
  Percent fungal survival at 100 µM: 6.95%
[1]; [10]
  activity at 100 µM: 17.4%
M. mycetomatis MM55; M. mycetomatis
  Drug static or cidal: Cidal
M. mycetomatis MM55; [13]
  IC90: 1230 nM
M. mycetomatis MM55; [15]
  IC90: 750 nM
M. mycetomatis MM55; [17]
  IC90: 2600 nM
M. mycetomatis MM55; [19]
  IC90: 340 nM
[2]; [21]
  MIC50: 0.125 µM (≈ 0.052 µg/mL)
[2]; [22]
  MIC: 0.125 µM (≈ 0.052 µg/mL)
[2]; [25]
  MIC: 0.25 µM (≈ 0.104 µg/mL)
[2]; isolate P1, read-out: MIC P1
  MIC: 0.06 µM (≈ 0.025 µg/mL)
[2]; [26]
  MIC: > 0.03 µM
[2]; [27]
  MIC: 0.06 µM (≈ 0.025 µg/mL)
[2]; isolate So1, read-out: MIC So1
  MIC: 0.125 µM (≈ 0.052 µg/mL)
[2]; isolate i1, read-out: MIC i1
  MIC: > 0.03 µM
[2]; isolate i11, read-out: MIC i11
  MIC: 0.5 µM (≈ 0.208 µg/mL)
[3]; [28]
  In vivo efficacy, Enhanced survival compared to control?: no
  In vivo efficacy, Larvae survival %: 8.9%
